pEC50: −log10 of the molar value.
Experiment: Inhibition of rilpivirine-resistant HIV1 NL4-3 reverse transcriptase E138K mutant infected in human TZM-b1 cells after 2 days by bright Glo-luciferase reporter gene assay

Row | Structure (SMILES) | pEC50
1 | Cc1cc(/C=C/C#N)cc(C)c1Oc1cc(Nc2ccc(C#N)cc2)c(N)cc1C(=O)OCCC#N | 8.54
2 | Cc1cc(/C=C/C#N)cc(C)c1Oc1cc(Nc2ccc(C#N)cc2)c(N)cc1C(=O)NCCCl | 8.07
3 | Cc1cc(/C=C/C#N)cc(C)c1Oc1cc(Nc2ccc(C#N)cc2)c(N)cc1C(=O)N1CC1 | 8.06
4 | COCCOC(=O)c1cc(N)c(Nc2ccc(C#N)cc2)cc1Oc1c(C)cc(/C=C/C#N)cc1C | 8.34
5 | Cc1cc(/C=C/C#N)cc(C)c1Oc1cc(Nc2ccc(C#N)cc2)c(N)cc1C(=O)NCCCO | 7.64

Source: BindingDB's records for doi:10.1016/j.bmcl.2017.04.068 (Beijing Institute of Pharmacology & Toxicology, 2017)
